What all share (assay type): cell-based, human
In one assay the test system is HL-60(TB). The experiment in a line: NCI60 one-dose screen, HL-60(TB). The following applies: HL-60(TB) (Leukemia); NCI 60 one-dose, 10^-5 M. Here is the method: (§1) Anti-cancer activity screening of all compounds was performed by the NCI Developmental Therapeutics Program (DTP) through their NCI60 screening initiative. Assay details can be found at the website dtp.cancer.gov/discovery_development/nci-60/methodology.htm. Information from this website is reproduced here for convenience.
(§2) As of early 2007 all compounds submitted to the NCI 60 Cell screen are tested initially at a single high dose (10^-5 M) in the full NCI 60 cell panel. Only compounds which satisfy pre-determined threshold inhibition criteria in a minimum number of cell lines will progress to the full 5-dose assay. The threshold inhibition criteria for progression to the 5-dose screen was selected to efficiently capture compounds with anti-proliferative activity based on careful analysis of historical DTP screening data. The threshold criteria may be updated as additional data becomes available.
(§3) The One-dose data will be reported as a mean graph of the percent growth of treated cells and will be similar in appearance to mean graphs from the 5-dose assay. […]
(§4) Following drug addition, the plates are incubated for an additional 48 h at 37° C., 5% CO2, 95% air, and 100% relative humidity. […] Bound stain is subsequently solubilized with 10 mM trizma base, and the absorbance is read on an automated plate reader at a wavelength of 515 nm. […]

The next assay concerns SR. The experiment in a line: NCI60 one-dose screen, SR. The following applies: SR (Leukemia); NCI 60 one-dose, 10^-5 M. Here is the method:
as §1, §2, §3, §4

The next assay relates to NCI-H226. Briefly: NCI60 one-dose screen, NCI-H226. The following applies: NCI-H226 (Non-Small Cell Lung Cancer); NCI 60 one-dose, 10^-5 M. Here is the method: as §1, §2, §3, §4
Another assay has as its system COLO 205. The experiment in a line: NCI60 one-dose screen, COLO 205. The following applies: COLO 205 (Colon Cancer); NCI 60 one-dose, 10^-5 M. Here is the method: as §1, §2, §3, §4
Another assay has as its system HCT-116. Briefly: NCI60 one-dose screen, HCT-116. The following applies: HCT-116 (Colon Cancer); NCI 60 one-dose, 10^-5 M. Here is the method:
as §1, §2, §3, §4

The subject of the next assay is HT29. The experiment in a line: NCI60 one-dose screen, HT29. The conditions noted are these: HT29 (Colon Cancer); NCI 60 one-dose, 10^-5 M. Here is the method: as §1, §2, §3, §4
A further assay deals with SF-539. The experiment in a line: NCI60 one-dose screen, SF-539. The conditions noted are these: SF-539 (CNS Cancer); NCI 60 one-dose, 10^-5 M. Here is the method:
as §1, §2, §3, §4

In the next assay the test system is SNB-19. The experiment in a line: NCI60 one-dose screen, SNB-19. The conditions noted are these: SNB-19 (CNS Cancer); NCI 60 one-dose, 10^-5 M. Here is the method: as §1, §2, §3, §4
For another assay, the system named is U251. Briefly: NCI60 one-dose screen, U251. The conditions noted are these: U251 (CNS Cancer); NCI 60 one-dose, 10^-5 M. Here is the method:
as §1, §2, §3, §4

A further assay relates to LOX IMVI. The experiment in a line: NCI60 one-dose screen, LOX IMVI. The following applies: LOX IMVI (Melanoma); NCI 60 one-dose, 10^-5 M. Here is the method: as §1, §2, §3, §4
The subject of a further assay is SK-MEL-2. The experiment in a line: NCI60 one-dose screen, SK-MEL-2. The following applies: SK-MEL-2 (Melanoma); NCI 60 one-dose, 10^-5 M. Here is the method: as §1, §2, §3, §4
The test system of a further assay is IGROV1. Briefly: NCI60 one-dose screen, IGROV1. The conditions noted are these: IGROV1 (Ovarian Cancer); NCI 60 one-dose, 10^-5 M. Here is the method:
as §1, §2, §3, §4

The subject of a further assay is OVCAR-5. The experiment in a line: NCI60 one-dose screen, OVCAR-5. The following applies: OVCAR-5 (Ovarian Cancer); NCI 60 one-dose, 10^-5 M. Here is the method:
as §1, §2, §3, §4

Another assay relates to 786-0. The experiment in a line: NCI60 one-dose screen, 786-0. The conditions noted are these: 786-0 (Renal Cancer); NCI 60 one-dose, 10^-5 M. Here is the method: as §1, §2, §3, §4
A further assay deals with CAKI-1. Briefly: NCI60 one-dose screen, CAKI-1. The conditions noted are these: CAKI-1 (Renal Cancer); NCI 60 one-dose, 10^-5 M. Here is the method:
as §1, §2, §3, §4

Another assay relates to TK-10. Briefly: NCI60 one-dose screen, TK-10. The conditions noted are these: TK-10 (Renal Cancer); NCI 60 one-dose, 10^-5 M. Here is the method: as §1, §2, §3, §4
Another assay has as its system MCF7. Briefly: NCI60 one-dose screen, MCF7. The following applies: MCF7 (Breast Cancer); NCI 60 one-dose, 10^-5 M. Here is the method: as §1, §2, §3, §4
The test system of another assay is MDA-MB-468. The experiment in a line: NCI60 one-dose screen, MDA-MB-468. The following applies: MDA-MB-468 (Breast Cancer); NCI 60 one-dose, 10^-5 M. Here is the method: as §1, §2, §3, §4

This note sets out measurements from patent US12252492B2, “Substituted fused pyrrolo-diazepinones and uses thereof” (Northwestern University, priority 2018, dated 2025).

In the case of `CC(=O)N1c2ccccc2NC2=C(C(=O)N(C)C2(C)C)C1c1ccccc1` (stereo not drawn) [NUCC-60872], the “Growth Percent” value with HL-60(TB) is listed as 7.50%; with SR, 16.70%; with NCI-H226 it was 91.06%; in the assay on COLO 205 it was 14.23%; with HCT-116 it was 24.91%; in the assay on HT29 it was 25.22%. The “Growth Percent” value was 20.14% in the assay on SF-539; 39.87% in the assay with SNB-19; 18.07% in the assay on U251; 37.52% in the assay with LOX IMVI; 8.92% in the assay with SK-MEL-2; 39.64% in the assay on IGROV1. The “Growth Percent” value with OVCAR-5 is recorded as 62.50%; with 786-0, 80.09%; in the assay on CAKI-1, 71.91%; in the assay with TK-10, 87.08%; with MCF7, 16.41%; with MDA-MB-468 it was 19.19%.

Take `CC(=O)N1c2ccccc2NC2=C(C(=O)N(Cc3ccccc3)C2(C)C)C1c1ccco1` (stereo not drawn) [NUCC-608455]: the “Growth Percent” value in the assay on HL-60(TB) was determined as 9.63%; in the assay with SR, 23.29%; with NCI-H226 it was 65.66%; in the assay on COLO 205, 16.77%; in the assay with HCT-116, 7.52%; with HT29, 9.99%. Also, the “Growth Percent” value with SF-539 is reported as −17.85%; in the assay on SNB-19 it was 23.61%; in the assay on U251, 24.64%; with LOX IMVI, 25.57%; with SK-MEL-2 it was 16.91%; in the assay with IGROV1, 26.78%. Further, the “Growth Percent” value in the assay with OVCAR-5 is given as 25.92%; in the assay on 786-0, 21.45%; with CAKI-1, 42.97%; in the assay on TK-10, 54.92%; in the assay with MCF7 it was 15.26%; in the assay with MDA-MB-468, −1.86%.
